Test results from patent US20230233500A1, “Gasdermin D (GSDMD) Succination for the Treatment of Inflammatory Disease” (University of Massachusetts, priority 2020, published 2023).
Where a name gives a salt, the structure may show the parent alone.

Tests used:
recombinant GSDMD = molecular target: T1, recombinant GSDMD (Homo sapiens, UniProt P57764); assay: MMF-Yne labelling of recombinant GSDMD competed by fumarate, intact MS; format: binding; conditions: 1 μM GSDMD
T1 sequence (P57764 1-484): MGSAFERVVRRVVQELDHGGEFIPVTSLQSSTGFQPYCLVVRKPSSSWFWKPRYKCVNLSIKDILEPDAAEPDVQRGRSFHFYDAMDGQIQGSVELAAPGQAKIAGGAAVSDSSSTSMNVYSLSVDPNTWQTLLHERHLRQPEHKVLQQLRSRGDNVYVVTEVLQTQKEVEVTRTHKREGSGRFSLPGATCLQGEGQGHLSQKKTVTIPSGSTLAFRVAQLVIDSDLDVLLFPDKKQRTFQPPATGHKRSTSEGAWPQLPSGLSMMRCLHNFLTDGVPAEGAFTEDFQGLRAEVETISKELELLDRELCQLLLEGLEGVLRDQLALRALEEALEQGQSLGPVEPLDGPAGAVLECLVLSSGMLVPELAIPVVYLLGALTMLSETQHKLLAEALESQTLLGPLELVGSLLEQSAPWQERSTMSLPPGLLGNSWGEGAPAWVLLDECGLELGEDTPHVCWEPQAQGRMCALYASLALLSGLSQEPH
Protocol: FIGS. 11A-E. Fumarate binds to GSDMD. (A) Immunoblot analysis of MMF-Yne bound proteins using a streptavidin-IR dye. (B) Representative MS spectra of GSDMD identified in streptavidin pulldowns subjected to mass spec. (C-D) Immunoblot analysis (C) and densitometry analysis (D) of streptavidin-IR dye detecting MMF-Yne labelled recombinant GSDMD incubated with the indicated concentrations of fumarate and copper clicked using a biotin-azide. (E) Intact MS analysis of recombinant GSDMD (1 μM) incubated in a succination reaction with DMSO (vehicle) or fumarate (25 μM) for 2 hours. A-E Representative images from 2 independent experiments..
Intact mass analysis of GSDMD protein was carried out using an Acquity UPLC (Waters Corporation, Milford, Mass.) coupled to a Synapt G2-Si (Waters) quadrupole time-of-flight mass spectrometer fitted with an electrospray ionization source. Liquid chromatography was carried out with a 3.0×50 mm(4 μm) MAbPac RP column (Thermo Scientific, Waltham, Mass.) using mobile phase A and B containing 0.1% (v/v) formic acid in water, and 0.1% (v/v) formic acid in acetonitrile, respectively. A total of 0.6 μg sample was injected and the protein eluted using a linear gradient of 10 to 70% B over 7.0 minutes at a flow rate of 0.3 ml/min. […]

[1] = test system: GSDMD-deficient BMDMs (GSDME); assay: Cell death in GSDMD-deficient BMDMs; format: cell-based, mouse
Excerpt: FIGS. 3A-J. Fumarate targets GSDMD and Gasdermin E (GSDME). Kinetic cell death of WT and Gsdmd-BMDMs (A) or WT/GSDMD^−/− THP1 cells (B) treated as indicated. LDH and IL-1β release from WT and Gsdmd^−/− BMDMs (C-D). Immunoblot of GSDMD and GSDME in native and reduced cell lysates from BMDMs (E). Immunoblot of GSDME in streptavidin pulldown from clicked lysates (F). Representative Mass spectra of succinated GSDME (G-H). Immunoblot analysis of GSDMD and GSDME from WT and Gsdmcd^−/− BMDMs (I). A, B representative of three independent experiments. C, D, I pooled data from three independent experiments. E, F, J representative images from 3 independent experiments. ***, P<0.0001, […] (Two-way ANOVA). Error bars show means±SEM.
FIGS. 13A-B. Fumarate inhibits GSDMD and GSDME comparably. (A) Kinetic cell death data of WT (left-panel) and GSDMD−/− (right-panel) primary BMDMs with LPS for 2 hours, DMSO (vehicle) or fumarate (0-50 μM) followed by nigericin (10 μM) for 6 hours. (B) Immunoblot analysis of GSDMD, GSDME and -actin in cell lysates from WT and GSDMD−/− BMDMs treated as in (A).
Cells were plated, treated and incubated in phenol red free medium. Following treatment medium was collected and assessed for LDH release using the CytoTox96 non-radioactive cytotoxicity assay (Promega) as per manufacturer's instructions. Kinetic cell death assays were performed using SytoxOrange and the Biotek Cytation5.

Compound: COC(=O)/C=C/C(=O)OC [Fumarate, Dimethyl fumarate]
- concentration at which maximum occupancy of GSDMD was achieved (recombinant GSDMD): 25 µM
- cell death (GSDMD-independent, GSDME-dependent) ([1]; GSDMD-deficient BMDMs, kinetic): inhibited cell death
- GSDME processing / generation of GSDME-N ([1]; GSDMD-deficient cells, immunoblot): blocked
- inhibition of GSDMD-driven versus GSDME-driven cell death ([1]; WT and GSDMD-/- BMDMs, fumarate 0-50 μM, nigericin 6 hours): comparably
